Experimental data as given in US8652771B2, “Measurement of succinate in urine samples as a biomarker of kidney damage in diabetic subjects” (University of Souther California, priority 2008, dated 2014).
Read-outs that look alike come from different tables or passages of the source.

Tests used:
[1] = tested on: JGA (renin-producing JG cells); test: In vitro microperfused afferent arteriole-glomerulus (JGA) renin release, quinacrine fluorescence confocal imaging; parameters: species or system rabbit; conditions: for renin release (change in quinacrine fluorescence intensity [F0-F] normalized to baseline [F0]): agent alone in afferent arteriole perfusate, within 30 minutes, glucose 25.5 mM, equimolar mannitol, α-ketoglutarate 5 mM, otherwise normal glucose 5.5 mM; for EC50: dose-response, FIG. 2C; for effect on high glucose level-induced renin release and afferent arteriole diameter increase (FIG. 1C): high glucose 25.5 mM
Method: (A and B) Real-time confocal fluorescence imaging of renin content (quinacrine, light gray) and vascular diameter (cell membranes are labeled with R-18, dark gray) in the in vitro microperfused terminal afferent arteriole (AA) with attached glomerulus (G) freshly isolated from rabbit kidney. […] Scale bar: 20 μm.
(A) Overview of the TCA cycle and sites of inhibition with fluorocitrate (F: 100 μM: blocks aconitase in step 2) and malonate (MAL; 1 mM; blocks succinate dehydrogenase in step 6).
A superficial afferent arteriole with its glomerulus was microdissected from freshly harvested kidney slices. The afferent arteriole was cannulated and perfused using a method similar to those described previously (37). Briefly, dissection media were prepared from DMEM mixture F-12 (Sigma-Aldrich). Fetal bovine serum (Hyclone) was added at a final concentration of 3%. Vessel perfusion and bath fluid was a modified Krebs-Ringer-HCO3 buffer containing 115 mM NaCl, 25 mM NaHCO3, 0.96 mM NaH2PO4, 0.24 mM Na2HPO4, 5 mM KCl, 1.2 mM MgSO4, 2 mM CaCl2, 5.5 mM d-glucose and 100 μM l-arginine. The solutions were aerated with 95% O2 and 5% CO2 for 45 minutes, and their pH was adjusted to 7.4. Each preparation was transferred to a thermoregulated Lucite chamber mounted on the Leica inverted microscope. The preparation was kept in the dissection solution, and also, temperature was kept at 4° C. until cannulation of the arteriole was completed and then was gradually raised to 37° C. for the remainder of the experiment. In some experiments, the endothelium was mechanically removed from the vessel wall with the help of the perfusion pipette and by perfusing the control solution under the endothelium (between the endothelium and smooth muscle). […] The bath was continuously aerated with 95% O2 and 5% CO2. The acidotropic fluorophore quinacrine (Sigma-Aldrich), which is an intravital fluorescent dye selective for dense-core secretory granules, was used for labeling the renin granules (12, 13, 15). The membrane staining octadecyl rhodamine B chloride R18 and the nuclear stain Hoechst 33342 were used to visualize the glomerulus with its attached afferent arteriole. For ratiometric Ca2+ imaging, the fluo-4/fura red pair was used and calibrated as described before (37). DAF-FM was used to monitor changes in NO production as described (38). All fluorophores were from Invitrogen.

GENCs [2] = conditions: read-out: EC50, PGE2 release from GENCs; dose-response, FIG. 6D
Excerpt: Specially engineered biosensor cells, HEK293 cells, expressing the Ca^2+-coupled PGE2 receptor EP1 were loaded with fluo-4 and positioned next to GENCs in culture. […] Normalized changes in HEK293-EP1 biosensor cell fluo-4 intensity are shown and served as an index of PGE2 release. n=6 for each dose.

GENCs [3] = test: GENC [Ca2+]i, fura-2 spectrofluorometry; format: cell-based, mouse; conditions: for GENC intracellular Ca2+ [Ca2+]i level: high glucose 25.5 mM, succinate 5 mM, malonate 1 mM, fluorocitrate 100 p.M, normal glucose baseline 133±14 nM
vascular endothelium = test: Endothelial [Ca2+]i (fluo-4/fura red) and NO production (DAF-FM) in microperfused afferent arteriole-glomerulus; parameters: species or system mouse; conditions: glucose 5.5 to 25.5 mM or succinate 5 mM in arteriolar perfusate
Method: FIG. 6: GPR91 signaling in the vascular endothelium. […] Scale bar: 20 μm. […] KO (^−/−); n=6 each. […] A superficial afferent arteriole with its glomerulus was microdissected from freshly harvested kidney slices. The afferent arteriole was cannulated and perfused using a method similar to those described previously (37). Briefly, dissection media were prepared from DMEM mixture F-12 (Sigma-Aldrich). […] Vessel perfusion and bath fluid was a modified Krebs-Ringer-HCO3 buffer containing 115 mM NaCl, 25 mM NaHCO3, 0.96 mM NaH2PO4, 0.24 mM Na2HPO4, 5 mM KCl, 1.2 mM MgSO4, 2 mM CaCl2, 5.5 mM d-glucose and 100 μM l-arginine. […] Each preparation was transferred to a thermoregulated Lucite chamber mounted on the Leica inverted microscope. The preparation was kept in the dissection solution, and also, temperature was kept at 4° C. until cannulation of the arteriole was completed and then was gradually raised to 37° C. for the remainder of the experiment. In some experiments, the endothelium was mechanically removed from the vessel wall with the help of the perfusion pipette and by perfusing the control solution under the endothelium (between the endothelium and smooth muscle). […] The acidotropic fluorophore quinacrine (Sigma-Aldrich), which is an intravital fluorescent dye selective for dense-core secretory granules, was used for labeling the renin granules (12, 13, 15). […]

JG cells = conditions: saturating doses of succinate
Excerpt: (§1) FIG. 5: Localization of GPR91 in GENCs. […] C, control mix with no cDNA; WK, whole kidney from WT GPR91^+/+ or KO GPR91^−/− mice. […] JGC, renin-producing JG cells. (B-E) Localization of GPR91 protein in rat kidney with immunohistochemistry. […] One region of the glomerulus (indicated by a rectangle) is magnified in C and D for high-resolution colocalization studies. […] DIC background is merged with fluorescence to show glomerular morphology. (E) Negative control using no GPR91 primary antibody. Nuclei are medium gray. Scale bar: 10 μm (B-E).

HEK cells = conditions: saturating doses of succinate
Excerpt: as §1

VSMCs = conditions: saturating doses of succinate
Excerpt: as §1

[4] = succinate 5 mM, malonate 1 mM, fluorocitrate 100 μM
[5] = agent combined with high glucose 25.5 mM, succinate 5 mM, malonate 1 mM, fluorocitrate 100 μM, L-NAME 1 mM, indomethacin 50 μM
[6] = L-NAME 1 mM, indomethacin 50 μM

Row | Structure (SMILES) | renin release (change in quinacrine fluorescence intensity [F0-F] normalized to baseline [F0]) [1, 4] | renin release (change in quinacrine fluorescence intensity normalized to baseline) [1, 5] | GENC intracellular Ca2+ [Ca2+]i level (GENCs [3]) [nM] | other results
1 | OC[C@@H](O)[C@@H](O)[C@H](O)[C@H](O)CO [mannitol] | 19±4 Δ% |  |  | 
2 | O=C(O)CCC(=O)O [succinate] | 73±2 Δ% | 56±3 Δ% | 549 ± 29 | EC50 (GENCs [2]): 214 µM; EC50 [1]: 335 µM; [Ca2+]i response in GENCs with GPR91 silenced (GENCs [3]; GPR91 siRNA): no [Ca2+]i response; EC50 (GENCs [3]; succinate added to the superfusate, FIG. 5G, read-out: EC50, GENC Ca2+ signal): 69 µM; endothelial NO production (vascular endothelium): significant elevations; endothelial [Ca2+]i (vascular endothelium): significant elevations; [Ca2+]i elevation (JG cells): did not cause [Ca2+]i elevations; [Ca2+]i elevation (HEK cells): did not cause [Ca2+]i elevations; [Ca2+]i elevation (VSMCs): did not cause [Ca2+]i elevations
3 | O=C(O)CCC(=O)C(=O)O [α-ketoglutarate] | no effect |  |  | 
4 | O=C(O)CC(O)(C(=O)O)C(F)C(=O)O (centres unmarked) [fluorocitrate] | 11±2 Δ% | 16±2 Δ% | 143 ± 11 | 
5 | COc1ccc2c(c1)c(CC(=O)O)c(C)n2C(=O)c1ccc(Cl)cc1 [indomethacin] |  | 13±2 Δ% |  | effect on high glucose level-induced renin release and afferent arteriole diameter increase (FIG. 1C) [1, 6]: inhibited the effects of high glucose level
6 | COC(=O)[C@@H](N)CCCNC(=N)N[N+](=O)[O-] [L-NAME] |  | 14±6 Δ% |  | effect on high glucose level-induced renin release and afferent arteriole diameter increase (FIG. 1C) [1, 6]: inhibited the effects of high glucose level
7 | O=C(O)CC(=O)O [malonate] | 54±7 Δ% | 77±2 Δ% | 377 ± 22 | EC50 [1]: 367 µM; renin release (change in quinacrine fluorescence intensity normalized to baseline) ([1]; malonate 1 mM plus succinate 5 mM): 83±4 Δ%
